The source of these data is patent publication US5508311A, “Aliphatic propargylamines as selective MAO-B inhibitors and as neuroprotective agents” (University of Saskatchewan, priority 1993, dated 1996).

As usually defined, the pIC50 is the negative decadic logarithm of the IC50, by convention in mol/L.

pIC50: −log10 of the molar value. Structures can show the parent of a compound that is named as a salt. Where two headings read alike, the source gives them in different places. Bounds are passed on as bounds.

In test [1] the target is T1, MAO-B (Rattus norvegicus, UniProt P19643).
T1 sequence (P19643 1-520): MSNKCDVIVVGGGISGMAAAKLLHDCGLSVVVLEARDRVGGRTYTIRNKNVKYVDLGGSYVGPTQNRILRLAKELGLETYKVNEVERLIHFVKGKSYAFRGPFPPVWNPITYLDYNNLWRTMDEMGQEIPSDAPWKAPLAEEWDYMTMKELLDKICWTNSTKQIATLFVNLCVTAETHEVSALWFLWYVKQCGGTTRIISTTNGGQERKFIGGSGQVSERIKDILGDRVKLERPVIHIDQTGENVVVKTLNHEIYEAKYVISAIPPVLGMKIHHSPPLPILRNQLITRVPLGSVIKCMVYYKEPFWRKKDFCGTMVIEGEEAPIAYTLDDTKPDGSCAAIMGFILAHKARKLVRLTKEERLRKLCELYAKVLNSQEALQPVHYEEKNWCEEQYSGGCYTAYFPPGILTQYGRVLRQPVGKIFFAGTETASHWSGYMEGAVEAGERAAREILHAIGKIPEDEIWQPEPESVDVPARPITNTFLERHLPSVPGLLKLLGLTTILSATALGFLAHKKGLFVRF
Briefly: biochemical. Type of test: biochemical. As to conditions: for pIC50: read-out: PE IC50. The protocol: (§1) The aliphatic propargylamine inhibitors (from 1×10^-10 M to 1×10^-4 M) were preincubated with the MAO for 20 min. at ambient room temperature and then the residual enzyme activities were determined by addition of the substrates, followed by further incubation at 37° C. for 30 min. The enzymatic reactions were terminated by the addition of citric acid and the aldehyde products were extracted with toluene: ethyl acetate (1:1, v/v) and the radio-activities assessed in a scintillation counter.

In test [2] the target is T2, MAO-A (Rattus norvegicus, UniProt P21396).
T2 sequence (P21396 1-526): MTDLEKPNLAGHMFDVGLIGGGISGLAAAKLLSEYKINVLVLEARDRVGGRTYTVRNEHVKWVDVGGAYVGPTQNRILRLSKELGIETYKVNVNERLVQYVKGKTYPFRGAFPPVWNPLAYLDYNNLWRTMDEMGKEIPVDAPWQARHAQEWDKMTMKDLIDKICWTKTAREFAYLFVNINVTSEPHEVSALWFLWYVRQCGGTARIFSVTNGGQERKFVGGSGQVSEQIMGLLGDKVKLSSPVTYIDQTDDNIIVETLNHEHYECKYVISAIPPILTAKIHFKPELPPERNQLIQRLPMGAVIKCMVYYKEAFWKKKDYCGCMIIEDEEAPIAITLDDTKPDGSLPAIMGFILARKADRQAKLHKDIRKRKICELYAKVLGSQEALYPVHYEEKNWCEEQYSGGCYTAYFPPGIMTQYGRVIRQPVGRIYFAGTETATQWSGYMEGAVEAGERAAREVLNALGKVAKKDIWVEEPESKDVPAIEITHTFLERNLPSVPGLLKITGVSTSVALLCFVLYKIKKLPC
In words: biochemical. The note with it: substrate 5-HT (5 × 10^-4 M); rat liver MAO, in vitro; average of at least 3 independent experiments. The test is classed as biochemical. The protocol:
as §1

Test [3] concerns the target T3, MAO-A (Mus musculus, UniProt Q64133).
T3 construct: MAO activities in the mouse brain after; from tissue
T3 sequence (Q64133 1-526): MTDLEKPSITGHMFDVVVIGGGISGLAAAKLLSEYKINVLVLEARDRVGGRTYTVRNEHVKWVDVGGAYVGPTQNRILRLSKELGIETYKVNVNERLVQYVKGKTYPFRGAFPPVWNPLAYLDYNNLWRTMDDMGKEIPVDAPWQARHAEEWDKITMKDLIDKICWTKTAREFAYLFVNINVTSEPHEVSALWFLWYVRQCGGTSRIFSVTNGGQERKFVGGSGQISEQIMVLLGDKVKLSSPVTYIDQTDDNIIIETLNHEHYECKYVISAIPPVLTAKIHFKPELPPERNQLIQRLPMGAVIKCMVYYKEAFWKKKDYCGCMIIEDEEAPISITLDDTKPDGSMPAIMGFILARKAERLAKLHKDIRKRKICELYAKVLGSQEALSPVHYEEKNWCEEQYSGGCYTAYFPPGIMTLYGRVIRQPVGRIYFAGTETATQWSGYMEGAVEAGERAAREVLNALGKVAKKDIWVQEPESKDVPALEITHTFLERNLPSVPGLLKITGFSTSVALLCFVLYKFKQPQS
Briefly: in vivo. As to conditions: ip, read-out: 5-HT ID50. The protocol: (§2) Albino Swiss mice were used in this study. The animals were injected intraperitoneally with different doses of the aliphatic propargylamines in 100 μL saline.
(§3) 0.5, 1, 2, 5, 10, 20, 50, 100 mg/Kg. Striata were dissected from the brai
(§4) two hours after i.p. administration of the drugs. MAOA and MAOB activitie
(§5) were determined immediately. The values were estimated from doseresponse

For test [4], the target named is T4, MAO-B (Mus musculus, UniProt Q8BW75).
T4 construct: MAO activities in the mouse brain after; from tissue
T4 sequence (Q8BW75 1-520): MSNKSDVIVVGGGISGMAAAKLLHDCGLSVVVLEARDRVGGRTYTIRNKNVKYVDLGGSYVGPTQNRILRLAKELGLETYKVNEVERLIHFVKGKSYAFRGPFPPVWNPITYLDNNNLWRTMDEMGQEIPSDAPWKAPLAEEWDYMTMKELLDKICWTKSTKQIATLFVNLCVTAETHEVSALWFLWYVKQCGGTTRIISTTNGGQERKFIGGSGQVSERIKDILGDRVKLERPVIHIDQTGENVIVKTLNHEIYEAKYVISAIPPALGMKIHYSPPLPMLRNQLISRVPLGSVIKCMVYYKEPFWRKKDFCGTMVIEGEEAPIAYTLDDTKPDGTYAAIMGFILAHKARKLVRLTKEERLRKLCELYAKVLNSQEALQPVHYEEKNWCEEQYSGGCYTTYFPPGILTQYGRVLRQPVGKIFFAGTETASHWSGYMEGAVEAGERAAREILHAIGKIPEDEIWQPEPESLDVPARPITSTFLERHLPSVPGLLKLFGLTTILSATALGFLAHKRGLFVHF
In words: in vivo. The note with it: for ED50: read-out: PE ID50; for Ratio MAO-A/MAO-B: 120 min. The test is classed as in vivo. The protocol:
as §2, §3, §4, §5

The target of test [5] is T4, MAO-B. Briefly: MAO-B activity in the mouse brain after oral administration (substrate PE). The test is classed as in vivo. The note with it: oral 10 mg/Kg, 2 hours; PE (1.9 × 10^-5 M); mean ± standard error; saline = 100. The protocol: (§6) Table 3 indicates the MAO activities in the mouse brain following oral administration of the aliphatic propargylamines.
(§7) of each compound. Striata were dissected from the brain two hours after
(§8) the administration of the drugs. MAOA and MAOB activities were determined
Striata were dissected from the brain two
hours after oral administration of the drugs. MAOB activities were then
determined immediately. The values were estimated from doseresponse

Test [6] concerns the target T3, MAO-A. Type of test: in vivo. How it is done:
as §6, §7, §8

The test system of the next test is monoamine oxidase. In words: Inhibition of rat liver monoamine oxidase deamination of dopamine (DA, mixed-type MAO A and B substrate) in vitro. The test is classed as biochemical. As to conditions: substrate DA (5 × 10^-4 M), average of at least 3 independent experiments. How it is done: as §1

Regarding `C#CCN(C)CCCCCCC.Cl` [Example 1-HMP, N-(1-Heptyl)-N-methylpropargylamine hydrochloride], the “Ratio MAO-A/MAO-B” value stood at 20 at MAO-B [1] (ratio of IC50 values, in vitro) and 7 on MAO-B [4] (ratio of ID50 values, i.p.). For the same compound, the pIC50 is 5.70 at MAO-B [1] and 4.40 against MAO-A [2]. The ED50 on MAO-A [3] (2 hours after administration, 5-HT 5 × 10^-4 M, estimated from dose response curves) is 100 mg/kg; at MAO-B [4] (mouse, ip, 2 hours after administration, […], estimated from dose response curves), 15 mg/kg. Also, the “MAO-B ID50 (mg/Kg) / IC50 (1 × 10^-6 M)” value on MAO-B [4] (ID50 i.p. in mice versus IC50 in vitro) was 7.5 (mg/Kg)/(1 × 10^-6 M). In addition, the “Relative activity PE” value on MAO-B [5] amounted to 118 ± 14%. Moreover, on MAO-A [6] (oral 10 mg/Kg, 2 hours, 5-HT (5 × 10^-4 M), mean ± standard error, saline = 100), the “Relative activity 5-HT” value came out at 123 ± 16%.

Regarding `C#CCN(C)CCCC(=O)O` [Example 3-CP-MP, N-(3-Carboxy-1-propyl)-N-methylproparglamine oxalate], on MAO-B [1] (substrate PE (1.9 × 10^-5 M), rat liver MAO, in vitro, average of at least 3 independent experiments), the “PE IC50” value is “inactive”. Moreover, the “5-HT IC50” value at MAO-A [2] was “inactive”. Moreover, the “DA IC50” value in the test with monoamine oxidase was “inactive”.

For `C#CCN(C)C(C)CCCCC.Cl` (stereo not shown) [Example 2-HMP, N-(2-Heptyl)-N-methylpropargylamine hydrochloride], the “Ratio MAO-A/MAO-B” value was 100 on MAO-B [1] (rat, liver mitochondrial membranes) and 50 at MAO-B [4] (mouse, in vivo, ip). Further, the negative logarithm of the IC50 (pIC50) on MAO-B [1] is 6.70; against MAO-A [2] it was 4.70; at monoamine oxidase, 6.52. Besides, the ED50 at MAO-A [3] (2 h) turned out to be 25 mg/kg; at MAO-B [4] (mouse, ip, 2 h) it was 0.5 mg/kg. Besides, at MAO-B [4] (mouse, in vivo, ip), the “MAO-B ID50 (mg/Kg) / IC50 (1 × 10^-6 M)” value amounted to 2.5. In addition, on MAO-B [5], the “Relative activity PE” value is recorded as 39 ± 4%. Besides, the “Relative activity 5-HT” value on MAO-A [6] (mouse, in vivo, po, 10 mg/kg) worked out at 99 ± 5.

Turning to `C#CCNC(C)CC.Cl` (stereo not shown) [Example 2-BuPP, N-(2-Butyl)propargylamine hydrochloride salt], the “PE IC50” value at MAO-B [1] is “inactive”. Besides, the “5-HT IC50” value on MAO-A [2] was “inactive”.

In the case of `C#CCN(CC)CCCC.O=C(O)C(=O)O` [Example 1-BuEP, N-(1-Butyl)-N-ethylpropargylamine oxalate salt], at MAO-B [1], the “PE IC50” value was “inactive”. The “5-HT IC50” value at MAO-A [2] is “inactive”.

For `C#CCN(C)CCCCCl.Cl` [Cl-1-BuMP, N-(4-Chloro-1-butyl)-N-methylpropargylamine-HCl], the negative logarithm of the IC50 (pIC50) was 5.00 at MAO-B [1] ([…], rat liver MAO, in vitro, average of at least 3 independent experiments) and less than 4.00 against MAO-A [2]. Moreover, the “Ratio MAO-A/MAO-B” value on MAO-B [1] (ratio of IC50 values, in vitro) is more than 10.

On to `C#CCCN(C)C(C)CC.O=C(O)C(=O)O` (stereo not shown) [Example 3-BuBuM, N-(3-Butynyl)-N-(2-butyl)methylamine oxalate salt], for which the “PE IC50” value on MAO-B [1] is “inactive”. The “5-HT IC50” value on MAO-A [2] was “inactive”.
